Literature values in PMC9285603, “Flavan‐3‐ol Microbial Metabolites Modulate Proteolysis in Neuronal Cells Reducing Amyloid‐beta (1‐42) Levels” (Molecular Nutrition & Food Research, 2021).

Legend:
[1] = set-up: method as in PMID 28891114; details: compared with parental compound EGCG; cited from earlier work
[2] = tested on: human neuroblastoma SH‐SY5Y cells; set-up: method as in PMID 28891114; details: cited from earlier work
brown adipocytes = tested on: brown adipocytes; set-up: method as in PMID 28276197; details: cited from earlier work

Row | Structure (SMILES) | BBB permeability [1] | neurites outgrowth and elongation [2] | protection from increased production of reactive oxygen species (brown adipocytes)
1 | O=C1CCC(Cc2cc(O)cc(O)c2)O1 (stereo not drawn) [5‐(3ʹ,5ʹ‐dihydroxyphenyl)‐γ‐valerolactone] | slightly higher | significantly induced | 
2 | O=C1CC[C@H](Cc2ccc(O)c(O)c2)O1 [(R)‐5‐(3ʹ,4ʹ‐dihydroxyphenyl)‐γ‐valerolactone] |  |  | protect brown adipocytes
